According to patent publication US10409869B2, “(R)- and (S)-1-(3-(3-N,N-dimethylaminocarbonyl)phenoxyl-4-nitrophenyl)-1-ethyl-N,N'-bis (ethylene)phosphoramidate, compositions and methods for their use and preparation” (OBI Pharma, Inc., priority 2015, dated 2019):

Legend:
[1] = Hematology in monkeys, 2 mg/kg 30-min IV infusion; assay type: in vivo, Cynomolgus monkeys
Method: (§1) TH 3423 and TH 3424 were tested in […] naïve monkeys (1 male and one female for each compound at 2 mg/kg) with 30-min intravenous infusion, TK sampling: on Day 1 and Day 15: 0.25, 0.5, 0.75, 1 and 2 hr post infusion initiation. Serum chemistry and hematology: pre-dose (Day 1), day 5, day 8 (pre-dose), day 15 (pre-dose), day 22 and day 28. Clinical observation: Daily during the study, total 35 days. Food consumption: Daily during the study, total 35 days. Bodyweight measurement: Twice weekly for five weeks.

[2] = Plasma concentration and TK after 30-min IV infusion at 2 mg/kg; assay type: in vivo, Cynomolgus monkeys; conditions: for AUC(0-inf) / AUC(0-t): Cynomolgus, cynomolgus monkey, plasma, iv, 2 mg/kg
Method: as §1

C[C@@H](OP(=O)(N1CC1)N1CC1)c1ccc([N+](=O)[O-])c(Oc2cccc(C(=O)N(C)C)c2)c1 (single isomer, unassigned) [TH3423]
% BASO ([1]; female, Day 1 (pre-dose)): 0.0% | % EOS ([1]; female, Day 1 (pre-dose)): 2.3% | % MONO ([1]; female, Day 1 (pre-dose)): 4.8% | % NEUT ([1]; female, Day 1 (pre-dose)): 47.9% | HCT ([1]; female, Day 1 (pre-dose)): 35% | HGB ([1]; female, Day 1 (pre-dose)): 112 g/L | LYM ([1]; female, Day 1 (pre-dose)): 45% | MCH ([1]; female, Day 1 (pre-dose)): 24 pg | MCHC ([1]; female, Day 1 (pre-dose)): 320 g/L | MCV ([1]; female, Day 1 (pre-dose)): 74.9 fL | MPV ([1]; female, Day 1 (pre-dose)): 10.6 fL | PCT ([1]; female, Day 1 (pre-dose)): 0.338% | PDW ([1]; female, Day 1 (pre-dose)): 14.8 | PLT ([1]; female, Day 1 (pre-dose)): 3.18e+11 L⁻¹ | RBC ([1]; female, Day 1 (pre-dose)): 4.67e+12 L⁻¹ | RDW-CV ([1]; female, Day 1 (pre-dose)): 11.8% | RDW-SD ([1]; female, Day 1 (pre-dose)): 37.2 fL | WBC ([1]; female, Day 1 (pre-dose)): 6.7e+09 L⁻¹ | abs_basos ([1]; female, Day 1 (pre-dose)): 0 L⁻¹ | abs_eos ([1]; female, Day 1 (pre-dose)): 1.5e+08 L⁻¹ | abs_lymphs ([1]; female, Day 1 (pre-dose)): 3.02e+09 L⁻¹ | abs_monos ([1]; female, Day 1 (pre-dose)): 3.2e+08 L⁻¹ | abs_neuts ([1]; female, Day 1 (pre-dose)): 3.21e+09 L⁻¹ | % BASO ([1]; female, Day 8 (pre-dose)): 0.20% | % EOS ([1]; female, Day 8 (pre-dose)): 2.30% | % MONO ([1]; female, Day 8 (pre-dose)): 0.00% | % NEUT ([1]; female, Day 8 (pre-dose)): 61.90% | HCT ([1]; female, Day 8 (pre-dose)): 39.80% | HGB ([1]; female, Day 8 (pre-dose)): 128.00 g/L | LYM ([1]; female, Day 8 (pre-dose)): 35.60% | MCH ([1]; female, Day 8 (pre-dose)): 24.60 pg | MCHC ([1]; female, Day 8 (pre-dose)): 322.00 g/L | MCV ([1]; female, Day 8 (pre-dose)): 76.30 fL | MPV ([1]; female, Day 8 (pre-dose)): 9.60 fL | PCT ([1]; female, Day 8 (pre-dose)): 0.67% | PDW ([1]; female, Day 8 (pre-dose)): 15.40 | PLT ([1]; female, Day 8 (pre-dose)): 6.99e+11 L⁻¹ | RBC ([1]; female, Day 8 (pre-dose)): 5.21e+12 L⁻¹ | RDW-CV ([1]; female, Day 8 (pre-dose)): 12.30% | RDW-SD ([1]; female, Day 8 (pre-dose)): 39.50 fL | WBC ([1]; female, Day 8 (pre-dose)): 1.035e+10 L⁻¹ | abs_basos ([1]; female, Day 8 (pre-dose)): 2e+07 L⁻¹ | abs_eos ([1]; female, Day 8 (pre-dose)): 2.5e+08 L⁻¹ | abs_lymphs ([1]; female, Day 8 (pre-dose)): 3.68e+09 L⁻¹ | abs_monos ([1]; female, Day 8 (pre-dose)): 0 L⁻¹ | abs_neuts ([1]; female, Day 8 (pre-dose)): 6.4e+09 L⁻¹ | % BASO ([1]; female, Day 15 (pre-dose)): 0.10% | % EOS ([1]; female, Day 15 (pre-dose)): 2.70% | % MONO ([1]; female, Day 15 (pre-dose)): 6.30% | % NEUT ([1]; female, Day 15 (pre-dose)): 63.0% | HCT ([1]; female, Day 15 (pre-dose)): 33.9% | HGB ([1]; female, Day 15 (pre-dose)): 115 g/L | LYM ([1]; female, Day 15 (pre-dose)): 27.90% | MCH ([1]; female, Day 15 (pre-dose)): 24.0 pg | MCHC ([1]; female, Day 15 (pre-dose)): 339 g/L | MCV ([1]; female, Day 15 (pre-dose)): 70.6 fL | MPV ([1]; female, Day 15 (pre-dose)): 8.70 fL | PCT ([1]; female, Day 15 (pre-dose)): 0.46% | PDW ([1]; female, Day 15 (pre-dose)): 15.10 | PLT ([1]; female, Day 15 (pre-dose)): 5.33e+11 L⁻¹ | RBC ([1]; female, Day 15 (pre-dose)): 4.8e+12 L⁻¹ | RDW-CV ([1]; female, Day 15 (pre-dose)): 10.9% | RDW-SD ([1]; female, Day 15 (pre-dose)): 32.3 fL | WBC ([1]; female, Day 15 (pre-dose)): 9.56e+09 L⁻¹ | abs_basos ([1]; female, Day 15 (pre-dose)): 1e+07 L⁻¹ | abs_eos ([1]; female, Day 15 (pre-dose)): 2.6e+08 L⁻¹ | abs_lymphs ([1]; female, Day 15 (pre-dose)): 2.67e+09 L⁻¹ | abs_monos ([1]; female, Day 15 (pre-dose)): 6e+08 L⁻¹ | abs_neuts ([1]; female, Day 15 (pre-dose)): 6.02e+09 L⁻¹ | % BASO ([1]; male, Day 1 (pre-dose)): 0.0% | % EOS ([1]; male, Day 1 (pre-dose)): 2.4% | % MONO ([1]; male, Day 1 (pre-dose)): 5.5% | % NEUT ([1]; male, Day 1 (pre-dose)): 55.4% | HCT ([1]; male, Day 1 (pre-dose)): 40.8% | HGB ([1]; male, Day 1 (pre-dose)): 132 g/L | LYM ([1]; male, Day 1 (pre-dose)): 36.7% | MCH ([1]; male, Day 1 (pre-dose)): 25.4 pg | MCHC ([1]; male, Day 1 (pre-dose)): 324 g/L | MCV ([1]; male, Day 1 (pre-dose)): 78.3 fL | MPV ([1]; male, Day 1 (pre-dose)): 10.2 fL | PCT ([1]; male, Day 1 (pre-dose)): 0.365% | PDW ([1]; male, Day 1 (pre-dose)): 15.1 | PLT ([1]; male, Day 1 (pre-dose)): 3.58e+11 L⁻¹ | RBC ([1]; male, Day 1 (pre-dose)): 5.2e+12 L⁻¹ | RDW-CV ([1]; male, Day 1 (pre-dose)): 11.6% | RDW-SD ([1]; male, Day 1 (pre-dose)): 38.2 fL | WBC ([1]; male, Day 1 (pre-dose)): 5.33e+09 L⁻¹ | abs_basos ([1]; male, Day 1 (pre-dose)): 0 L⁻¹ | abs_eos ([1]; male, Day 1 (pre-dose)): 1.3e+08 L⁻¹ | abs_lymphs ([1]; male, Day 1 (pre-dose)): 1.95e+09 L⁻¹ | abs_monos ([1]; male, Day 1 (pre-dose)): 2.9e+08 L⁻¹ | abs_neuts ([1]; male, Day 1 (pre-dose)): 2.96e+09 L⁻¹ | % BASO ([1]; male, Day 8 (pre-dose)): 0.7% | % EOS ([1]; male, Day 8 (pre-dose)): 3.0% | % MONO ([1]; male, Day 8 (pre-dose)): 0.0% | % NEUT ([1]; male, Day 8 (pre-dose)): 80.9% | HCT ([1]; male, Day 8 (pre-dose)): 44.70% | HGB ([1]; male, Day 8 (pre-dose)): 146.00 g/L | LYM ([1]; male, Day 8 (pre-dose)): 15.4% | MCH ([1]; male, Day 8 (pre-dose)): 24.90 pg | MCHC ([1]; male, Day 8 (pre-dose)): 327.00 g/L | MCV ([1]; male, Day 8 (pre-dose)): 76.20 fL | MPV ([1]; male, Day 8 (pre-dose)): 10.60 fL | PCT ([1]; male, Day 8 (pre-dose)): 0.52% | PDW ([1]; male, Day 8 (pre-dose)): 15.70 | PLT ([1]; male, Day 8 (pre-dose)): 4.9e+11 L⁻¹ | RBC ([1]; male, Day 8 (pre-dose)): 5.86e+12 L⁻¹ | RDW-CV ([1]; male, Day 8 (pre-dose)): 11.90% | RDW-SD ([1]; male, Day 8 (pre-dose)): 38.00 fL | WBC ([1]; male, Day 8 (pre-dose)): 1.166e+10 L⁻¹ | abs_basos ([1]; male, Day 8 (pre-dose)): 8e+07 L⁻¹ | abs_eos ([1]; male, Day 8 (pre-dose)): 3.5e+08 L⁻¹ | abs_lymphs ([1]; male, Day 8 (pre-dose)): 1.79e+09 L⁻¹ | abs_monos ([1]; male, Day 8 (pre-dose)): 0 L⁻¹ | abs_neuts ([1]; male, Day 8 (pre-dose)): 9.44e+09 L⁻¹ | Plasma concentration ([2]; 2 hr, female): BQL | AUC(0-inf) ([2]; both sexes, Mean): 770 ng·h/mL | AUC(0-t) ([2]; both sexes, Mean): 766 ng·h/mL | AUC(0-inf) ([2]; female): 766 ng·h/mL | AUC(0-t) ([2]; female): 758 ng·h/mL | AUC(0-inf) ([2]; male): 774 ng·h/mL | AUC(0-t) ([2]; male): 773 ng·h/mL
